Data published in US20160310571A1, “Pharmaceutical Composition Comprising Erythropoietin and Ceftriaxone and A Method for Treating Parkinson's Disease Dementia” (Chung Shan Medical University, priority 2015, published 2016).

Legend:
Assay type in all cases: in vivo, rat
[1] = tested on: PDD rats; assay: T-maze test (working memory) in MPTP-induced PDD rats; conditions: test on 10th day, vs chance (50%)
Experimental: (§1) Wistar male rats (12 week-old, weight ˜400 grams) purchased from the National Laboratory Animal Center (R.O.C.) are used. The rats are housed in an animal room with constant temperature of 24±1° C., where is kept on a 12-hours light and 12-hours dark cycle. The rats are housed and kept on free diet and water.
(§2) On the 1st day, the rats are anesthetized, followed by bilaterally MPTP (1-methyl-4-phenyl-1,2,3,6-tetrahydropyridine hydrochloride)-infusion into the substantia nigra pars compacta (SNc). The rats with cognitive impairments on working memory and object recognition are used as the PDD rats (Ho et al., Behav Brain Res 268: 177-184, 2014).
Starting on the 1st day, referring to TABLE 1, saline (group Al), erythropoietin (groups A2 & A3) and ceftriaxone (groups A4 & A5) are administrated to the PDD rats in the corresponding groups. Erythropoietin and ceftriaxone are sequentially administrated to the PDD rats of group A6 with a time interval of 30 minutes. […]
Working memory of the rats of groups A0-A6 is assessed using the T-maze test (Ho et al., Behav Brain Res 268: 177-184, 2014). […]
On the 10th day, a test session consisting 3 rounds, each of which is composed of a “forced run” and two “choice run”, is carried out. The number of the rewards “R” that the rat under test “M” get (% of correct response) in the 6 choice runs is recorded.

[2] = tested on: PDD rats; assay: Object recognition test in MPTP-induced PDD rats; conditions: 13th day
Experimental: as §1, §2
Starting on the 1st day, referring to TABLE 1, saline (group Al), erythropoietin (groups A2 & A3) and ceftriaxone (groups A4 & A5) are administrated to the PDD rats in the corresponding groups. […]
Recognition ability of the rats of groups A0-A6 is measured using the object recognition test (Ho et al., Behav Brain Res 268: 177-184, 2014). […]
On the 13th day, the rat under test “M” is first placed in the open box shown as FIG. 4a, and the time spent exploring the object O1 (TO1) and the total time spent exploring the objects O1, O2 & O3 (TO1+O2+O3) are recorded, respectively. The percentage of the exploration time spent on the object O1 is calculated as (TO1/TO1+O2+O3)*100%. […]

[3] = tested on: DAergic neuron in the SNc; assay: Histopathological analysis: tyrosine hydroxylase staining of SNc sections; conditions: 14th day, vs group A1 (saline)
Experimental: as §1, §2
(§3) Starting on the 1st day, referring to TABLE 1, saline (group Al), erythropoietin (groups A2 & A3) and ceftriaxone (groups A4 & A5) are administrated to the PDD rats in the corresponding groups. Erythropoietin and ceftriaxone are sequentially administrated to the PDD rats of group A6 with a time interval of 30 minutes. Saline is also used to be administrated to the normal rats of group A0. Moreover, saline, erythropoietin and ceftriaxone are administrated for 14 days (from the 1st day to the 14th day).
(§4) On the 14th day, the rats of groups A0-A6 are sacrificed and the coronal sections are collected. The sections with SNc are used for tyrosine hydroxylase staining, while the sections with hippocampal CA1 area are used for Nissl staining. […]

[4] = tested on: pyramidal neuron in the hippocampal CA1 area; assay: Histopathological analysis: Nissl staining of hippocampal CA1 sections; conditions: 14th day, vs group A1 (saline), p<0.001
Experimental: as §1, §2, §3, §4

[5] = group A4, ceftriaxone 5 mg/kg/day, p<0.05

Structure (SMILES): CO/N=C(\C(=O)N[C@@H]1C(=O)N2C(C(=O)O)=C(CSc3nc(=O)c(=O)[nH]n3C)CS[C@H]12)c1csc(N)n1 [ceftriaxone]
- percentage of correct response in T-maze test (working memory) [1, 5]: slightly treatment on the cognitive impairment on working memory
- percentage of correct response in T-maze test (working memory) ([1]; group A5, ceftriaxone 10 mg/kg/day, p<0.001): significant treatment on the cognitive impairment on working memory
- percentage of time exploring novel object O4 vs object O1 (recognition ability) ([2]; group A4, ceftriaxone 5 mg/kg/day, p<0.001): can recognize the novel object O4 in the environment
- percentage of time exploring novel object O4 vs object O1 (recognition ability) ([2]; group A5, ceftriaxone 10 mg/kg/day, p<0.05): can recognize the novel object O4 in the environment
- density of DAergic neuron in the SNc [3, 5]: recovery of DAergic neuron density in the SNc
- density of DAergic neuron in the SNc ([3]; group A5, ceftriaxone 10 mg/kg/day, p<0.01): recovery of DAergic neuron density in the SNc
- percentage of the CA1 area occupied by the pyramidal neuron ([4]; group A4, ceftriaxone 5 mg/kg/day): recovery of pyramidal neuron density in the CA1 area
- percentage of the CA1 area occupied by the pyramidal neuron ([4]; group A5, ceftriaxone 10 mg/kg/day): recovery of pyramidal neuron density in the CA1 area
